Measured values: patent publication US20220177911A1, “SYNTHETIC CIRCUIT FOR CELLULAR MULTISTABILITY” (California Institute of Technology, priority 2020, published 2022)
pKd: −log10 of the molar value.

Columns and labels:
[1] = system: MultiFate-2.3 cells; assay: Flow cytometry analysis of MultiFate-2.3 state-switching; type: cell-based, Chinese hamster
From the text: FIG. 21A-FIG. 21C depict non-limiting exemplary data related to raw flow cytometry analysis of MultiFate-2.3 state-switching. Each plot represents one of three biological replicates at the indicated time point (cf. FIG. 4B). Initial A-only, B-only and A+B cells (rows) were sorted under the media conditions indicated on the top. Each 2-dimensional flow cytometry plot was divided at mCherry=104 and mCitrine=104 into four quadrants, representing four states. For each plot, the percentage of cells in each of the four states is labeled on the corresponding corner. Timelines above each set of plots represent the time and indicated inducer conditions. Note that since the response elements for 4-OHT or Dox are adjacent to the transcription factor homodimer binding sites (Table 2), the addition of 4-OHT or Dox increases A or B expression up to, but not substantially beyond, the level produced by transcription factor self-activation. […] Additional Dox activation further increased the B expression only by another 1.4 fold (Day 6 versus Day 18).
Finally, it was asked to what extent cells could be deliberately switched from one state to another through transient perturbations. MultiFate-2.3, in which the A and B genes can be independently activated by 4-hydroxy-tamoxifen (4-OHT) and Dox, respectively, was used to address this question. In this cell-line, the response elements for the inducers are adjacent to the homodimer binding sites. Therefore, the addition of inducers increases A or B expression up to, but not substantially beyond, the level produced by self-activation (FIG. 2C and FIG. 21A-FIG. 21C). In the bistable regime, transient induction of either transcription factor switched cells into the corresponding state, where they remained in the absence of further induction (FIG. 8A, FIG. 4B, left, and FIG. 21A). […]
For flow cytometry experiments characterizing state stability (FIG. 3C and FIG. 5B) and state-switching dynamics (FIG. 4A-FIG. 4B), cells from each state were sorted into media containing corresponding inducers. […] The remaining 96% cells were suspended in the flow cytometry buffer and analyzed by flow cytometry. […]
To characterize long-term state stability of MultiFate cells in different media conditions (FIG. 3A-FIG. 5D), 4% of cells were trypsinized and transferred into fresh media with the same condition every three days. The remaining cells were resuspended in flow cytometry buffer and analyzed by a flow cytometer. The resulting two-dimensional (or three-dimensional for MultiFate-3) fluorescence intensity plots were then divided into four quadrants (or eight octants) by an empirical threshold in each of the two (or three) fluorescence channels. […]

[2] = system: reporter containing 18 bp homodimer binding sites driving the expression of Citrine; assay: Transient co-transfection Citrine reporter assay of ZF transcription factors; type: cell-based, Chinese hamster
From the text: To engineer ZF transcription factors, the ErbB2 ZF DNA-binding domain was fused to a GCN4 homodimerization domain and a VP48 transcriptional activation domain to create the synthetic transcription factor, termed ZF-GCN4-AD (FIG. 2A). A transcription factor (ZF-AD) lacking GCN4 was used as a monomeric control. To assay their transcriptional activity, a reporter was constructed containing 18 bp homodimer binding sites driving the expression of Citrine. Each transcription factor was then co-transfected together with the reporter and an mTagBFP2 co-transfection marker into Chinese hamster ovary K1 (CHO-K1) cells, and analyzed for Citrine expression by flow cytometry 36 hours later (FIG. 2A and FIG. 9A) (See, “Additional Methods” below). […] Arginine-to-alanine mutations were introduced at key positions in the ZF known to weaken DNA binding, which decreased monomeric activity without reducing homodimer activity (FIG. 2A, red square). […]
All tissue culture experiments were performed with Chinese hamster ovary K1 cells (CHO-K1, ATCC). […] Cells were harvested after 36 hours and cell fluorescence was measured by flow cytometry. […] After another 72 hours, cells were harvested and analyzed by flow cytometry. […] The inhibition strength was quantified as the reduction of self-activation cell fractions. […]

[3] = system: self-activation construct in Tet3G-expressing CHO-K1 cells; assay: ZF transcription factor self-activation assay (normalized mCitrine+ fraction); type: cell-based, Chinese hamster; conditions: 24 hours Dox, then Dox withdrawn; 72 hours in AP1903 and/or TMP
From the text: To validate this capability, a self-activation construct was designed (FIG. 2C), in which a transcription factor with a FKBP dimerization domain is expressed from a promoter containing its own 18 bp homodimer binding sites (Table 2). This construct allowed independent Dox-inducible activation through upstream Tet3G (Takara Bio) binding sites. […] Finally, a destabilized mCitrine was incorporated for dynamic readout of construct expression. This construct was integrated into Tet3G-expressing CHO-K1 cells, generating a stable polyclonal population for further analysis (Table 3) (See, “Additional Methods” below).
For experiments characterizing ZF transcription factor self-activation (FIG. 2C and FIG. 10A), each self-activation construct was stably integrated (Table 2) into polyclonal Tet3G-expressing CHO-K1 cells via PiggyBac (Systems Biosciences) to make a polyclonal cell line (Table 3). […] After another 72 hours, cells were harvested and analyzed by flow cytometry.
Each self-activation construct (Table 2, construct MF63-MF69) was stably integrated into Tet3G-expressing CHO-K1 cells. […] After another 72 hours, cells were harvested and analyzed by flow cytometry. […]

[4] = target: T1, homodimerization domain (Homo sapiens, UniProt P62942, F37V); assay: Dissociation constant of homodimerization domains (parameter estimate); type: binding; conditions: media containing 100 nM AP1903; reasoned from reporter activation versus GCN4; read-out: apparent dissociation constant Kd of homodimerization
T1 construct: expressed in transfected cells; host or cells: CHO-K1
T1 sequence (P62942 2-108 F37V): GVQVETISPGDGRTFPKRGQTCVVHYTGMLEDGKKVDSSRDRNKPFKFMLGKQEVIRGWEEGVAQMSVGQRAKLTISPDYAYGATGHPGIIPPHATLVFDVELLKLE
Description: Finally, parameters related to protein dimerization were estimated. In some embodiments, the apparent dissociation constant Kd of FKBP homodimerization domain may depend on AP1903 concentrations. […] Based on this observation, it was reasoned that in media containing 100 nM AP1903, the apparent dissociation constant Kd≤10 nM. An estimate of Kd=10 nM=8000 molecules/cell was used in the model. For monomer association rate kon, an intermediate value in the range of diffusion-limited association rates of kon=4×10^5/(M·s)=1.8×10^−3 cell/(protein·hr) was used. These two values together produce a dimer dissociation rate koff=Kd×kon=[…].

[5] = system: monoclonal self-activation stable lines (42ZFR2AR39AR67A DNA-binding domain); assay: Inhibition of self-activation by competitive dimerization; type: cell-based, Chinese hamster; conditions: 100 nM AP1903 and 10 μM TMP
From the text: To test this, monoclonal cell lines with the self-activating circuits were selected, and then constructs expressing proteins were stably integrated with a different ZF DNA-binding domain and a matching or mismatching dimerization domain to generate a polyclonal cell population for each perturbation construct (Table 2 and Table 3) (See, “Additional Methods” below). […] Without being bound by any particular theory, this may be through non-specific mechanisms (FIG. 2D and FIG. 10B-FIG. 10C).
All tissue culture experiments were performed with Chinese hamster ovary K1 cells (CHO-K1, ATCC). […] Cells were harvested after 36 hours and cell fluorescence was measured by flow cytometry. […] After another 72 hours, cells were harvested and analyzed by flow cytometry. […] The inhibition strength was quantified as the reduction of self-activation cell fractions.
To determine whether competitive dimerization inhibits self-activation (FIG. 2D and FIG. 10B-FIG. 10C), plasmids (Table 2, construct MF72-MF80) expressing different transcription factor variants and a co-translational mCherry were stably integrated in these two monoclonal lines. After puromycin selection, cells were transferred into media containing 100 nM AP1903+10 μM TMP to permit self-activation, and measured by flow cytometry after another 72 hours. […]

[6] = target: homodimerization domain; conditions: cited from earlier work

Compound: NLS-FKBP12F36V-BCRZFR39A-VP16-NLS-DHFR [transcription factor A]
- increase in A expression by transcription factor self-activation (mCherry median Day 18 / Day 0) ([1]; mean of three replicates): 125 fold

Compound: CC[C@H](C(=O)N1CCCC[C@H]1C(=O)O[C@H](CCc1ccc(OC)c(OC)c1)c1cccc(OCC(=O)NCCNC(=O)COc2cccc([C@@H](CCc3ccc(OC)c(OC)c3)OC(=O)[C@@H]3CCCCN3C(=O)[C@@H](CC)c3cc(OC)c(OC)c(OC)c3)c2)c1)c1cc(OC)c(OC)c(OC)c1 [AP1903]
- control of ZF transcription factor dimerization/activation by dimerization ligand ([2]; FKBP12F36V (FKBP) homodimerization domain instead of GCN4, BCRZFR39A): dose-dependent control of dimerization
- self-activation after Dox withdrawal (mCitrine distribution) [3]: bimodal distribution of mCitrine fluorescence

Compound: NLS-FKBP12F36V-37ZFR2AR11AR39AR67A-VP16-NLS-DHFR [transcription factor B]
- increase in B expression by transcription factor self-activation (Day 18 versus Day 0) [1]: 48 fold

Compound: C[C@H]1c2cccc(O)c2C(=O)C2=C(O)[C@]3(O)C(=O)C(C(N)=O)=C(O)[C@@H](N(C)C)[C@@H]3[C@@H](O)[C@@H]21 [Dox]
- additional increase in B expression by inducer compared with self-activation (Day 6 versus Day 18) ([1]; Dox 500 ng/ml): 1.4 fold

Compound: FKBP: FKBP12F36V homodimerization domain (SEQ ID NO: 5)
- pKd [4]: ≥ 8.00
- inhibition of self-activation ([5]; FKBP-42ZFR2AR39AR67A-VP48-DHFR self-activation cells): can partially inhibit self-activation

Compound: GCN4: GCN4 homodimerization domain
- pKd [6]: 7.70 to 8.00
- inhibition of self-activation ([5]; 42ZFR2AR39AR67A-GCN4-VP48-DHFR self-activation cells): did not have inhibitory effects

Compound: 4-hydroxy-tamoxifen [4-OHT]
- additional increase in A expression by inducer compared with self-activation (Day 6 versus Day 18) ([1]; 4-OHT 25 nM): 2.8 fold

Compound: ZF-GCN4-AD: ErbB2 ZF DNA-binding domain fused to GCN4 homodimerization domain and VP48 activation domain
- reporter activation by ZF transcription factor ([2]; ErbB2 ZF, VP48 activation domain, wild-type (WT) ZF, flow cytometry 36 hours after transfection): strongly activated the reporter

Compound: COc1cc(Cc2cnc(N)nc2N)cc(OC)c1OC [TMP, trimethoprim]
- self-activation after Dox withdrawal (mCitrine distribution) [3]: promoted self-activation in a dose-dependent manner
